Experimental data reported in US20180372720A1, “STABLE ISOTOPE LABELING KINETICS - SECONDARY ION MASS SPECTROMETRY (SILK SIMS) AND METHODS OF USE THEREOF” (Washington University, priority 2017, published 2018).

Key:
[1] = test system: amyloid-β plaques; details: mouse, in vivo
Protocol: To assess the feasibility of detecting ^13C6-leucine isotopic enrichment in native amyloid-β plaques, tracer was administered to APP/PS1 mice at 3.5 months of age (pre-plaque pathology) for 10 and 5 weeks (FIG. 2A).
Two male double transgenic mice expressing chimeric mouse/human amyloid precursor protein (Mo/HuAPP695swe) and a mutant human presenilin 1 (PS1-dE9) both directed to CNS neurons (stock 34832-JAX) were kindly provide by Dr. Timothy Miller. Animals were given leucine-free chow (Catalog #1831936, Test Diet, St. Louis, Mo.) with 5 mg/mL ^12C6-leucine added to 2% sucrose-containing drinking water to control leucine intake for a one week acclimation period. After the one-week acclimation period, animals were given 5 mg/mL ^13C6- or ^12C6-leucine orally via 2% sucrose drinking water, averaging 36 mL of H2O/week (FIG. 2). Animals were 4 months old at the time of labeling and 6.5 months old at the end of labeling. Following the end of the labeling paradigm, animals were anesthetized with 65 mg/kg pentobarbital sodium and sacrificed by decapitation. Brains were removed and placed in 10% neutral-buffer formalin (Catalog #15740-01, EMS, Hatfield, Pa.). All animal procedures were conducted in accordance with the Washington University Animal Studies Committee, and are consistent with the National Institutes of Health (NIH) guidelines for the care and use of animals. Pieces of mouse brain were washed into NaHCa and incubated overnight at 4° C. The following morning, samples were stained with 1% osmium/NaHCa for 1 hour, washed 4 times over 1 hour and then en bloc stained with 1% uranyl acetate/H2O for 1 hour in the dark. Samples were rinsed with 3 exchanges of water, 10 minutes each and then processed for LR White embedding as described above with the addition of being gold-coated once on the Si wafer. Serial adjacent sections were place on glass microscope slides for toluidine blue staining for light microscopy.
Data was acquired on either a Cameca NanoSIMS 50 at WASHU (cells and human tissue) or NanoSIMS 50 L at Brigham and Women's Hospital (mouse tissue). Images of the B-cell hybridoma used to calculate that ^13C6-leucine standard curve were acquired at a 50 μm raster for 15 minutes at 1 ms/px and 65.5 s/plane (dwell time) for a total of 10 planes (i.e., cycles) per mass (256×256 px). APP/PS1 mouse brain tissue was acquired at a 17-60 μm raster for 11-87 minutes at 2 ms/px and 131 s/plane (dwell time) for a total of 5-40 cycles (i.e., planes) per mass (256×256 px).
Each analysis was performed in 24-hour blocks with measurements on SiC standard to assess instrument stability followed by measurements on an un-labeled control prior to SILK-SIMS data acquisition. Raw image data was imported into custom, in-house particle definition software, L'Image, to produce quantitative mass images of heavy and light isotopes, and determine where any isotopic anomalies may be located. The fractional uncertainty, f, of the heavy/light isotope ratios in each region-of-interest (ROI) was calculated in Excel as the sum in quadrature of the standard deviation of the average ratios measured for non-labeled material, σStd, and the Poisson errors, σROI, of the ROI itself, as given by the equation

[2] = mouse, in vivo
Protocol: Mouse whole blood was spun at 1,000×g for 10 min and the plasma (supernatant) removed. Plasma proteins were precipitated with ice-cold acetone followed by de-lipidation with hexane and the aqueous fraction was dried in vacuo^1. 1:1 MTBSTFA/acetonitrile was added and samples were incubated 70° C. for 30 min. Duplicate 1 μL injections were made into an Agilent 5973 MSD mass spectrometer using a 30 μm×0.25 mm DB-5MS column (Agilent Technologies). […] The molar fraction of labeled leucine was calculated as: MFL=TTR/(1+TTR).

[3] = test system: Aβ plaques; details: in vivo
Protocol: Human cortical tissue samples were obtained from the Charles F. and Joanne Knight Alzheimer's Disease Research Center (ADRC) at Washington University School of Medicine in Saint Louis, Mo. Cognitive status was determined with a validated retrospective postmortem interview with an informant to establish the Clinical Dementia Rating (CDR). […] At autopsy, the left hemisphere was fixed in 10% neutral buffered formalin and stored at room temperature until further preparation.
Blocks were polymerized at 80° C. for 72 hrs. Tissue blocks were sectioned using a diamond ultrathin section knife on a Reichert Ultra-Cut E ultramicrotome at 300-500 nm thick. […]
Each analysis was performed in 24-hour blocks with measurements on SiC standard to assess instrument stability followed by measurements on an un-labeled control prior to SILK-SIMS data acquisition. Raw image data was imported into custom, in-house particle definition software, L'Image, to produce quantitative mass images of heavy and light isotopes, and determine where any isotopic anomalies may be located. The fractional uncertainty, f, of the heavy/light isotope ratios in each region-of-interest (ROI) was calculated in Excel as the sum in quadrature of the standard deviation of the average ratios measured for non-labeled material, σStd, and the Poisson errors, σROI, of the ROI itself, as given by the equation […]

[4] = test system: Aβ proteoforms; details: Pt2, 8 days between labeling and expiration
Protocol: 1 g of frontal lobe tissue was homogenized in ice-cold 1×PBS with 0.05% CHAPS and centrifuged at 17,000×g for 30 min at 4° C. as previously described^4. The supernatant was spun for 1 hr at 100,000×g at 4° C. and the resulting pellet solubilize in 5 M guanidine overnight at 4° C. with rotation. Next, samples were spun for 20 min at 17,000×g at 4° C. and the supernatant was diluted 1:10 in 1×PBS in BSA-block tubes as previously described^4. Samples were immunoprecipitated (IP) with 50 uL of HJ5.1 anti-Aβ antibody (mid-domain epitope) coupled Dynabeads (Catalog #14311 D, Invitrogen, Carlsbad, Calif.) made following the manufacturer's instructions. After overnight incubation at 4° C. IPs were eluted in neat formic acid and dried in vacuo. Samples were resuspended in 50 mM TEABC (Catalog #17902, Sigma, St. Louis, Mo.), spiked with ^15N-Aβ internal standard, and digested overnight with 0.25 ng/μL Lys-N(Catalog #100965-1, Seikagaku Biobusiness Corp., Tokyo, Japan) at 4° C.
Samples were resuspended in 1% FA/10% ACN (v/v) with 20 nM BSA digest (Catalog #1863078, Pierce, Rockford, Ill.). Samples were analyzed in triplicate by nanoLC-MS/MS on an LTQ-Orbitrap Fusion (Thermo Fisher Scientific) in positive ion mode. Separations were performed using an online NanoAcquity UPLC (Waters, Milford, Mass.) using an ACQUITY UPLC HSS T3 (360 μm OD×75 μm ID) column packed with 10 cm C18 (1.8 μm, 100 Å, Waters) at 300 nL/min and heated to 65° C. Mobile phases were 0.1% FA in water (A) and 0.1% FA in ACN (B). Samples were eluted from the column with the gradient starting at 12% B, which was ramped to 32% B over 10 min and further increased to 90% B over 5 min and held for 1 min, before re-equilibration to 12% B over 2 min. Total run time, including column equilibration, sample loading, and analysis was 30 min. The mass spectrometer was operated in targeted MS2 mode. MS2 spectra were acquired in the Orbitrap (30,000 at m/z 400) in centroid mode using XCalibur, version 4.0 (Thermo Fisher Scientific). Ion injection times for the targeted MS2 scans for labeled and unlabeled respectively (in ms) were: Aβ mid-domain (54, 1080), Aβ40 (54, 540), and Aβ42 (54, 1080). The Orbitrap automatic gain control targets were set 5×10^5 for all proteoforms except Aβ42, which was set to 1×10^6. The targeted precursor ions were sequentially isolated in the quadrupole and fragmented in the Orbitrap using HCD (isolation width 1.6 Da, normalized collision energy 25%, activation Q 0.250, and activation time 10 ms). […]
Data (.raw files) were imported into a Skyline template containing the Lys-N C-terminal peptides of Aβ8, 40, 42 and the mid-domain. […] The sum of all transitions (b ions monitored for each parent peptide) were summed for unlabeled and SILK Aβ peptides and exported from Skyline to Excel. […]

CC(C)C[C@H](N)C(=O)O [^13C6-leucine]
normalized tracer enrichment ratio [1]: 0.015±2.22×10^−4
raw tracer enrichment ratio [1]: 0.015±1.56×10^−5
^13C/^12C isotope ratio ([1]; po): 2.7%
^13C/^12C ratio ([1]; po): 3.7%
normalized ^13C^14N−/^12C^14N− ratio ([1]; po): 0.024±3.43×10^−4
raw ^13C^14N−/^12C^14N− ratio ([1]; po): 0.023±1.41×10^−5
Average Mol fraction labeled [2]: 72.02%
increase above the natural abundance of ^13C/^12C [3]: 18%
mean ratio of ^13C^14N−/^12C^14N− [3]: 1.31%±0.05
detection of labeled Aβx-38 [4]: unable detect
enrichment above isotopic background, Aβ mid-domain [4]: 0.053%
enrichment above isotopic background, Aβx-40 [4]: 0.112%
enrichment above isotopic background, Aβx-42 [4]: 0.022%
